PubChem BioAssay (NCI)
Where “and” joins values, the source holds several entries; their conditions need not be identical. Equal values may be shown once.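 Following 48 hours of exposure in 96-well plates, responses at five concentrations were used to interpolate endpoints linearly. GI50 = concentration required for 50% inhibition of growth. TGI marks complete inhibition of growth.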

Key:
Experiment in all cases: inhibition of tumour cell growth, NCI panel, 48 h
[1] = system: SK-MEL-5 melanoma
[2] = system: HCT-15 colon
[3] = system: DMS 114 small cell lung
[4] = system: UACC-62 melanoma
[5] = system: MALME-3M melanoma
[6] = system: OVCAR-4 ovarian
[7] = system: HOP-62 NSCLC
[8] = system: LXFL 529 NSCLC
[9] = system: NCI-H23 lung
[10] = system: ACHN renal
[11] = system: SN12C renal
[12] = system: A498 renal
[13] = system: HCC-2998 colon
[14] = system: LOX IMVI melanoma
[15] = system: OVCAR-5 ovarian
[16] = system: SNB-78 CNS
[17] = system: RXF 393 renal
[18] = system: SK-MEL-2 melanoma
[19] = system: K-562 leukemia
[20] = system: SNB-19 CNS
[21] = system: DMS 273 small cell lung
[22] = system: TK-10 renal
[23] = system: SF-268 CNS
[24] = system: SF-539 CNS
[25] = system: COLO 205 colon
[26] = system: M14 melanoma
[27] = system: IGROV1 ovarian
[28] = system: U251 CNS
[29] = system: CAKI-1 renal
[30] = system: EKVX NSCLC
[31] = system: NCI-H460 lung
[32] = system: M19-MEL melanoma
[33] = system: 786-0 renal
[34] = system: A549 NSCLC
[35] = system: HL-60(TB) leukemia
[36] = system: SK-OV-3 ovarian
[37] = system: HCT-116 colon
[38] = system: SK-MEL-28 melanoma
[39] = system: SF-295 CNS
[40] = system: UACC-257 melanoma
[41] = system: CCRF-CEM leukemia
[42] = system: KM12 colon
[43] = system: HT29 colon
[44] = system: UO-31 renal
[45] = system: DLD-1 colon
[46] = system: KM20L2 colon
[47] = system: SW-620 colon
[48] = system: RXF-631 renal
[49] = system: MOLT-4 leukemia
[50] = system: MDA-MB-435
[51] = system: HS 578T breast
[52] = system: BT-549 breast
[53] = system: SR leukemia
[54] = system: NCI-H522 lung
[55] = system: RPMI-8226 leukemia
[56] = system: MCF7 breast
[57] = system: SNB-75 CNS
[58] = system: T-47D breast
[59] = system: OVCAR-3 ovarian
[60] = system: HOP-92 NSCLC
[61] = system: OVCAR-8 ovarian
[62] = system: PC-3 prostate
[63] = system: MDA-N
[64] = system: XF 498 CNS
[65] = system: NCI-H226 lung
[66] = system: DU-145 prostate
[67] = system: MDA-MB-231 breast
[68] = system: NCI/ADR-RES ovarian
[69] = system: HOP-18 NSCLC

N#CCC(=O)N1CCCOCCC1
TGI [1]: > 100 µM | TGI [2]: 37.7 µM | TGI [3]: > 100 µM | TGI [4]: > 100 µM | TGI [5]: > 100 µM | TGI [6]: > 100 µM | TGI [7]: > 100 µM | TGI [8]: > 100 µM | TGI [9]: > 100 µM | TGI [10]: > 100 µM | TGI [11]: > 100 µM | TGI [12]: > 100 µM | TGI [13]: > 100 µM | TGI [14]: > 100 µM | TGI [15]: > 100 µM | TGI [16]: > 100 µM | TGI [17]: > 100 µM | TGI [18]: > 100 µM | TGI [19]: > 100 µM | TGI [20]: > 100 µM | TGI [21]: > 100 µM | TGI [22]: > 100 µM | TGI [23]: > 100 µM | TGI [24]: > 100 µM | TGI [25]: 42.2 µM | TGI [26]: > 100 µM | TGI [27]: > 100 µM | TGI [28]: > 100 µM | TGI [29]: > 100 µM | TGI [30]: > 100 µM | TGI [31]: > 100 µM | TGI [32]: > 100 µM | TGI [33]: > 100 µM | TGI [34]: > 100 µM | TGI [35]: > 100 µM | TGI [36]: > 100 µM | TGI [37]: > 100 µM | TGI [38]: > 100 µM | TGI [39]: > 100 µM | TGI [40]: > 100 µM | TGI [41]: > 100 µM | TGI [42]: > 100 µM | TGI [43]: > 100 µM | TGI [44]: > 100 µM | TGI [45]: > 100 µM | TGI [46]: > 100 µM | TGI [47]: 24.3 µM | TGI [48]: > 100 µM | TGI [49]: 7.36 µM

O=[N+]([O-])c1cccc2nc3ccccc3c(NCCN(CCO)CCO)c12
TGI [1]: 0.00574 µM and 0.013 µM | TGI [2]: 0.0668 µM and 0.169 µM | TGI [4]: 0.0114 µM | TGI [5]: 0.00649 µM | TGI [6]: 0.0147 µM and 0.0812 µM | TGI [7]: 0.00991 µM | TGI [50]: 0.00283 µM | TGI [8]: 0.108 µM and 0.0243 µM | TGI [51]: 0.0308 µM | TGI [9]: 0.00583 µM | TGI [10]: 0.0205 µM and 0.0345 µM | TGI [11]: 0.0287 µM and 0.0859 µM | TGI [52]: 0.00875 µM | TGI [12]: 0.0116 µM | TGI [13]: 0.00674 µM | TGI [53]: 0.11 µM | GI50 [14]: 0.0118 µM | TGI [14]: 0.0319 µM and 0.0331 µM | TGI [54]: 0.00389 µM | TGI [55]: 0.0971 µM | TGI [56]: 0.0322 µM | TGI [15]: 0.0234 µM | TGI [16]: 0.194 µM and 0.0523 µM | TGI [57]: 0.0286 µM | TGI [17]: 0.00447 µM | TGI [18]: 0.0102 µM | GI50 [19]: 0.00476 µM | TGI [19]: 0.0283 µM | TGI [20]: 0.108 µM and 0.346 µM | TGI [21]: 0.0422 µM and 0.0246 µM | TGI [22]: 0.138 µM | TGI [23]: 0.0296 µM and 0.113 µM | GI50 [24]: 0.0137 µM | TGI [24]: 0.0266 µM and 0.0594 µM | TGI [58]: 0.114 µM | TGI [25]: 0.0146 µM | TGI [26]: 0.00821 µM | TGI [27]: 0.0265 µM | TGI [28]: 0.0261 µM | TGI [29]: 0.0232 µM and 0.0622 µM | TGI [59]: 0.0144 µM | TGI [60]: 0.0171 µM | TGI [61]: 0.0231 µM and 0.0166 µM | GI50 [30]: 0.0128 µM | TGI [30]: 0.0411 µM and 0.0524 µM | TGI [31]: 0.00891 µM | TGI [62]: 0.0109 µM | TGI [33]: 0.0296 µM | TGI [34]: 0.0334 µM | TGI [36]: 0.177 µM | TGI [37]: 0.0311 µM | GI50 [38]: 0.0103 µM | TGI [38]: 0.027 µM and 0.023 µM | TGI [39]: 0.0549 µM and 0.017 µM | TGI [63]: 0.0029 µM | GI50 [40]: 0.0498 µM | TGI [40]: 0.224 µM and 0.0238 µM | GI50 [41]: 0.0156 µM | TGI [41]: 0.109 µM | TGI [64]: 0.024 µM | TGI [65]: 0.0041 µM and 0.0193 µM | TGI [42]: 0.0206 µM | TGI [43]: 0.0202 µM | GI50 [44]: 0.257 µM | TGI [45]: 0.0658 µM and 0.58 µM | TGI [46]: 0.069 µM and 0.029 µM | TGI [47]: 0.0235 µM and 0.111 µM | TGI [66]: 0.0108 µM | TGI [48]: 0.108 µM and 0.0405 µM | TGI [67]: 0.0097 µM | GI50 [49]: 0.00413 µM | TGI [49]: 0.0903 µM

CC12CCCCC1C(=O)C2(Cl)Cl (stereo unspecified)
TGI [1]: 3.82 µM | TGI [2]: 11.3 µM | TGI [4]: 6.09 µM | TGI [5]: 4.19 µM | TGI [6]: 12.5 µM | TGI [7]: 4.92 µM | TGI [8]: 6 µM | TGI [9]: 8.59 µM | TGI [10]: 5.91 µM | TGI [11]: 12.3 µM | TGI [12]: 12.7 µM | TGI [13]: 4.22 µM | TGI [14]: 6.1 µM | TGI [54]: 4.61 µM | TGI [55]: 3.79 µM | TGI [15]: 8.96 µM | TGI [16]: 17.9 µM | TGI [57]: 18.3 µM | TGI [17]: 14.3 µM | TGI [18]: 4.41 µM | TGI [19]: 4.37 µM | TGI [21]: 5.4 µM | TGI [22]: 11.3 µM | TGI [23]: 14.6 µM | TGI [24]: 5.18 µM | TGI [26]: 5.32 µM | TGI [27]: 9.95 µM | TGI [28]: 5.56 µM | TGI [29]: 10.1 µM | TGI [59]: 3.58 µM | TGI [61]: 5.16 µM | TGI [30]: 11 µM | TGI [31]: 6.37 µM | TGI [33]: 4.73 µM | TGI [34]: 11.2 µM | TGI [35]: 3.88 µM | TGI [37]: 3.51 µM | TGI [38]: 4.18 µM | TGI [39]: 3.38 µM | TGI [40]: 5.63 µM | TGI [41]: 5.45 µM | TGI [64]: 4.19 µM | TGI [42]: 4.97 µM | TGI [43]: 3.06 µM | TGI [44]: 5.23 µM | TGI [45]: 6.22 µM | TGI [47]: 4.47 µM | TGI [48]: 5 µM | TGI [49]: 5.44 µM

O=C(CSc1ncnc2nc[nH]c12)c1ccccc1
TGI [1]: > 100 µM | TGI [2]: > 100 µM | TGI [68]: > 100 µM | TGI [3]: > 100 µM | TGI [4]: > 100 µM | TGI [5]: > 100 µM | TGI [6]: > 100 µM | TGI [7]: > 100 µM | TGI [50]: > 100 µM | TGI [8]: > 100 µM | TGI [51]: > 100 µM | TGI [9]: > 100 µM | TGI [69]: > 100 µM | TGI [10]: > 100 µM | TGI [11]: > 100 µM | TGI [52]: > 100 µM | TGI [12]: > 100 µM | TGI [53]: > 100 µM | TGI [14]: > 100 µM | TGI [54]: > 100 µM | TGI [55]: > 100 µM | TGI [56]: > 100 µM | TGI [15]: > 100 µM | TGI [16]: > 100 µM | TGI [17]: > 100 µM | TGI [18]: > 57.8 µM | TGI [19]: > 100 µM | TGI [20]: > 100 µM | TGI [21]: > 100 µM | TGI [22]: > 100 µM | TGI [23]: > 100 µM | TGI [24]: > 100 µM | TGI [58]: > 100 µM | TGI [25]: > 100 µM | TGI [26]: > 100 µM | TGI [27]: > 100 µM | TGI [28]: > 100 µM | TGI [29]: > 100 µM | TGI [59]: > 100 µM | TGI [60]: > 100 µM | TGI [61]: > 100 µM | TGI [30]: > 100 µM | TGI [31]: > 100 µM | TGI [32]: > 100 µM | TGI [62]: > 100 µM | TGI [33]: > 100 µM | TGI [34]: > 100 µM | TGI [35]: > 100 µM | TGI [36]: > 100 µM | TGI [37]: > 100 µM | TGI [38]: > 100 µM | TGI [39]: > 100 µM | TGI [63]: > 100 µM | TGI [40]: > 100 µM | TGI [41]: > 100 µM | TGI [64]: > 100 µM | TGI [65]: > 100 µM | TGI [42]: > 57.1 µM | TGI [43]: > 100 µM | TGI [44]: > 100 µM | TGI [45]: > 100 µM | TGI [46]: > 100 µM | TGI [47]: > 100 µM | TGI [66]: > 100 µM | TGI [67]: > 100 µM | TGI [49]: > 100 µM
